Measured values reported in ChEMBL document CHEMBL1817605, “Development of a highly selective fluorescence probe for alkaline phosphatase” (Bioorg Med Chem Lett, 2011).
Calls of active or inactive are those of the source. The calls are words filed in the database; no cut-off is given here.

How the values were obtained:
[1] = Activity of alkaline phosphatase at 2 uM measured every 2 mins from up to 30 mins by fluorometric analysis
[2] = target: T1, Tyrosine-protein phosphatase non-receptor type 1 (Homo sapiens) (UniProt P18031); assay: Activity of PTP1B
T1 sequence (whole entry): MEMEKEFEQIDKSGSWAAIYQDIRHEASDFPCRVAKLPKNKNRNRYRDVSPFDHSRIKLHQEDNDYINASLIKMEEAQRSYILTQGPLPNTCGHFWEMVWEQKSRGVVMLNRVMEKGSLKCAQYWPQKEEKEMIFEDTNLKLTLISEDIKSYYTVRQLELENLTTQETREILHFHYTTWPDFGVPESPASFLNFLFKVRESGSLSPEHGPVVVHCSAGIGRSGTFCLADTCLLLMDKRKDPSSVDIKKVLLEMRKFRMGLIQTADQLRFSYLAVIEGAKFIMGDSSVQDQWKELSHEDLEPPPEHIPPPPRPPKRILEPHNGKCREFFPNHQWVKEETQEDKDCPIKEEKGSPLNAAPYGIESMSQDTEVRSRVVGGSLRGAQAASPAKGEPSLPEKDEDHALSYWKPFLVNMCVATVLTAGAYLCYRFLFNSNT

[3] = Activity of alkaline phosphatase by Michaelis-Menten equation analysis
[4] = Ratio of Vmax to Km for alkaline phosphatase
[5] = target: Serine/threonine-protein phosphatase PP1-alpha catalytic subunit (Homo sapiens) (UniProt P62136); assay: Activity of PP1 alpha
Serine/threonine-protein phosphatase PP1-alpha catalytic subunit (Homo sapiens), sequence (P62136 whole entry): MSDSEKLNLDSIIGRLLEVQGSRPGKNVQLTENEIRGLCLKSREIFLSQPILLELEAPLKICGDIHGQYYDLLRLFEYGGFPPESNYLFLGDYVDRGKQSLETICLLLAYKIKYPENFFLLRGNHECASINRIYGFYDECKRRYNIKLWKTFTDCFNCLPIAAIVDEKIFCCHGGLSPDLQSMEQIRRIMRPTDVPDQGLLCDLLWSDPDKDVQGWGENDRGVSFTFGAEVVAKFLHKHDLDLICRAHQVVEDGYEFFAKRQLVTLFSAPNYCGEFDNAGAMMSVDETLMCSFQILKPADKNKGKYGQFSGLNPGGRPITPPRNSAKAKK

Row | Activity [1] | Activity [2] | Km [3] | Vmax [3] | Vmax/Km [4] | Activity [5] | SMILES
1 | Active | Active |  |  |  |  | O=C1OC2(c3ccc(OP(=O)(O)O)cc3Oc3cc(OP(=O)(O)O)ccc32)c2ccccc21
2 | Active | Active | 0.96 µM | 0.025 µM/min | 0.026 min⁻¹ | Active | COc1ccc(-c2c3ccc(=O)cc-3oc3cc(OP(=O)(O)O)ccc23)c(C)c1
3 | Active | inactive | 0.77 µM | 0.033 µM/min | 0.043 min⁻¹ | inactive | COc1ccc(-c2c3ccc(=O)cc-3oc3cc(OCOP(=O)(O)O)ccc23)c(C)c1
